Test results from ChEMBL document CHEMBL5126564, “Design, synthesis and biological evaluation of chromone derivatives as novel protein kinase CK2 inhibitors” (Bioorg Med Chem Lett, 2022).
The source made the active and inactive calls. The rule behind the calls is not given here.

Tests used:
Casein kinase 2 [1] = target: T1, Casein kinase 2 (Homo sapiens, UniProt P67870+P68400+P19784+Q8NEV1); experiment: Inhibition of CK2 (unknown origin); type: protein assay
HL-60 [2] = experiment: Antiproliferative activity against human HL-60 cells assessed as cell viability after 48 hrs by CCK-8 assay; type: functional, cell-based; conditions: HL-60, 48 h
[3] = Cytotoxicity against human MSC assessed as cell viability after 48 hrs by CCK-8 assay; type: toxicity, cell-based; conditions: mesenchymal stem cells (MSC)
HepG2 = experiment: Antiproliferative activity against human HepG2 cells assessed as cell viability after 48 hrs by CCK-8 assay; type: functional, cell-based; conditions: HepG2, 48 h
SK-OV-3 = experiment: Antiproliferative activity against human SK-OV-3 cells assessed as cell viability after 48 hrs by CCK-8 assay; type: functional, cell-based; conditions: SK-OV-3, 48 h
A549 = experiment: Antiproliferative activity against human A549 cells assessed as cell viability after 48 hrs by CCK-8 assay; type: functional, cell-based; conditions: A549, 48 h
HL-60 [4] = experiment: Induction of apoptosis in human HL-60 cells assessed as early apoptotic cells at 1 uM measured after 48 hrs by flow cytometry relative to control; type: functional
Casein kinase 2 [5] = target: T1, Casein kinase 2; experiment: Binding affinity to CK2 (unknown origin) by cellular thermal shift assay; type: protein assay
Casein kinase 2 [6] = target: T1, Casein kinase 2; experiment: Inhibition of CK2 in human HL-60 cells assessed as increase in cleaved PARP level at 0.1 to 1 uM by Western blot analysis; type: cell-based; conditions: dose 0.1-1 µM
Casein kinase 2 [7] = target: T1, Casein kinase 2; experiment: Inhibition of CK2 in human HL-60 cells assessed as decrease in p-STAT3 level at 0.1 to 1 uM by Western blot analysis; type: cell-based; conditions: dose 0.1-1 µM
Casein kinase 2 [8] = target: T1, Casein kinase 2; experiment: Inhibition of CK2 in human HL-60 cells assessed as decrease in p-p21 level at 0.1 to 1 uM by Western blot analysis; type: cell-based; conditions: dose 0.1-1 µM
Casein kinase 2 [9] = target: T1, Casein kinase 2; experiment: Inhibition of CK2 in human HL-60 cells assessed as decrease in p-alpha-catenin level at 0.1 to 1 uM by Western blot analysis; type: cell-based; conditions: dose 0.1-1 µM
Casein kinase 2 [10] = target: T1, Casein kinase 2; experiment: Inhibition of CK2 in human HL-60 cells assessed as decrease in survivin level at 0.1 to 1 uM by Western blot analysis; type: cell-based; conditions: dose 0.1-1 µM
Casein kinase 2 [11] = target: T1, Casein kinase 2; experiment: Inhibition of CK2 in human HL-60 cells assessed as decrease in p-Akt (S129) level at 0.1 to 1 uM by Western blot analysis; type: cell-based; conditions: dose 0.1-1 µM
HL-60 [12] = experiment: Induction of cell cycle arrest in human HL-60 cells assessed as increase number of cells at G0/G1 phase at 0.1 to 1 uM measured after 12 to 48 hrs by flow cytometry; type: functional, cell-based; conditions: dose 0.1-1 µM, time 12-48 hrs, DDE = dose-dependent effect
HL-60 [13] = experiment: Induction of apoptosis in human HL-60 cells measured after 48 hrs by flow cytometry; type: functional, cell-based; conditions: DDE = dose-dependent effect

SMILES	IC50 (Casein kinase 2 [1])	also measured
Cc1ccc2nc(NC(=O)c3cc(=O)c4ccccc4o3)sc2c1	370 nM	
O=C(Nc1nc2ccc(OC(F)(F)F)cc2s1)c1cc(=O)c2ccccc2o1	160 nM	
O=C(Nc1nc2ccc(C(F)(F)F)cc2s1)c1cc(=O)c2ccccc2o1	200 nM	
Cc1nnc(NC(=O)c2cc(=O)c3ccccc3o2)o1	5200 nM	
O=C(Nc1nc2cc(F)ccc2s1)c1cc(=O)c2ccccc2o1	110 nM	IC50 (HL-60 [2]): 310 nM; IC50 at 48 h [3]: 4340 nM; IC50 (HepG2): 850 nM; IC50 (SK-OV-3): 420 nM; IC50 (A549): 440 nM
O=C(Nc1nnco1)c1cc(=O)c2ccccc2o1	6880 nM	
O=C(Nc1nc2cc(Br)ccc2s1)c1cc(=O)c2ccccc2o1	250 nM	
O=C(O)c1cc(=O)c2ccccc2o1 [CHROMOCARB]	5980 nM	
O=C(Nc1nc(-c2ccccc2)cs1)c1cc(=O)c2ccccc2o1	610 nM	
Cc1ccc(-c2csc(NC(=O)c3cc(=O)c4ccccc4o3)n2)cc1	230 nM	
O=C(Nc1nccs1)c1cc(=O)c2ccccc2o1	5210 nM	
N#Cc1cccc(-c2csc(NC(=O)c3cc(=O)c4ccccc4o3)n2)c1	5090 nM	
CNC(=O)c1cc(Oc2ccc(NC(=O)Nc3ccc(Cl)c(C(F)(F)F)c3)cc2)ccn1 [SORAFENIB]		Activity (HL-60 [4]): 73.2%
COc1ccc2nc(NC(=O)c3cc(=O)c4ccccc4o3)sc2c1	290 nM	
Cc1csc(NC(=O)c2cc(=O)c3ccccc3o2)n1	6420 nM	
O=C(Nc1nc2ccccc2s1)c1cc(=O)c2ccccc2o1	310 nM	
O=C(Nc1nc2ccc(Br)cc2s1)c1cc(=O)c2ccccc2o1	290 nM	

SMILES	IC50 (Casein kinase 2 [1])	also measured
O=C(Nc1nc(-c2cccc(C(F)(F)F)c2)cs1)c1cc(=O)c2ccccc2o1	5550 nM	
COc1ccc2sc(NC(=O)c3cc(=O)c4ccccc4o3)nc2c1	80 nM	Activity (Casein kinase 2 [5]): Active; IC50 (HL-60 [2]): 250 nM; inhibition (Casein kinase 2 [6]): Active; IC50 at 48 h [3]: 6250 nM; inhibition (Casein kinase 2 [7]): Active; inhibition (Casein kinase 2 [8]): Active; inhibition (Casein kinase 2 [9]): Active; IC50 (HepG2): 660 nM; IC50 (SK-OV-3): 390 nM; inhibition (Casein kinase 2 [10]): Active; inhibition (Casein kinase 2 [11]): Active; IC50 (A549): 380 nM; Activity (HL-60 [12]): Dde; Activity (HL-60 [4]): 80.7%; Activity (HL-60 [13]): Dde
O=C(Nc1nc(-c2ccc(OC(F)(F)F)cc2)cs1)c1cc(=O)c2ccccc2o1	180 nM	IC50 (HL-60 [2]): 590 nM; IC50 at 48 h [3]: 17700 nM; IC50 (HepG2): 1040 nM; IC50 (SK-OV-3): 490 nM; IC50 (A549): 670 nM
Cc1cnc(NC(=O)c2cc(=O)c3ccccc3o2)s1	7110 nM	
O=C(Nc1nc(-c2ccc(C(F)(F)F)cc2)cs1)c1cc(=O)c2ccccc2o1	340 nM	
O=C(Nc1nc2ccc(F)cc2s1)c1cc(=O)c2ccccc2o1	240 nM	
O=C(Nc1nc(-c2ccc(O)cc2)cs1)c1cc(=O)c2ccccc2o1	740 nM	
O=C(Nc1nc(-c2ccc(F)cc2)cs1)c1cc(=O)c2ccccc2o1	150 nM	IC50 (HL-60 [2]): 420 nM; IC50 at 48 h [3]: 7560 nM; IC50 (HepG2): 950 nM; IC50 (SK-OV-3): 440 nM; IC50 (A549): 520 nM
COc1ccc(-c2csc(NC(=O)c3cc(=O)c4ccccc4o3)n2)cc1	590 nM	
O=Cc1cnc(NC(=O)c2cc(=O)c3ccccc3o2)s1	4980 nM	
Cc1nc(NC(=O)c2cc(=O)c3ccccc3o2)sc1C	6110 nM	
Cc1cc2nc(NC(=O)c3cc(=O)c4ccccc4o3)sc2cc1C	360 nM	
O=C(Nc1ncc(Br)s1)c1cc(=O)c2ccccc2o1	5440 nM	
Cc1cccc(-c2csc(NC(=O)c3cc(=O)c4ccccc4o3)n2)c1	4120 nM	
CC(C)Cc1csc(NC(=O)c2cc(=O)c3ccccc3o2)n1	4350 nM	
CC(C)c1csc(NC(=O)c2cc(=O)c3ccccc3o2)n1	5340 nM	
O=C(Nc1ncco1)c1cc(=O)c2ccccc2o1	4880 nM	
